In brackets after ≈: the same amount, converted by molar mass. Several values for one entry are separate records, joined by “and”; a condition that tells them apart may be missing. Identical values can stand only once. Like-named read-outs stand apart in the source and are kept apart here. Blank lines part the entries; values can stand above or below the compound they belong to.
What was measured:
[1] = Stability under light exposure; format: physicochemical; details: for effect of light exposure on absorption spectrum: 17.5 μM in DMSO, 5 minutes, 60 W tungsten lamp; for absorbance under 2-hour continuous irradiation at absorption maximum: spectrophotometer beam, 7200 s
Experimental: The effect of exposure to the light beam of a commercial spectrophotometer was tested to mimic the common experimental condition.
One solution of dabcyl and one of Hydrodabcyl, both at 17.5 μM in DMSO prepared in the dark, were exposed for 5 minutes to the light of a common 60 W tungsten lamp.

[2] = Solubility tests in water and buffered aqueous solutions; format: physicochemical; details: for solubility: 50 mM NaP buffer, pH 8.0
Excerpt: The excellent solubility of the bare chromophore in aqueous solution already confers to Hydrodabcyl several practical advantages, e.g., aqueous solutions of Hydrodabcyl are easier to prepare and glassware can be more readily cleansed. Nevertheless, in most of applications the chromophores are linked to the molecules of interest. For example, to monitor protease activity chromophores are usually linked to the peptidic substrate. Both dabcyl and Hydrodabcyl can be easily coupled to an amino group through a standard amide bond formation. […] To investigate the behavior of dabcyl and Hydrodabcyl coupled to an amino acid bearing an amino group, dabcyl and Hydrodabcyl were linked to the amino group of a Lys side chain, and the solubility of the Lys-dabcyl and Lys-Hydrodabcyl moieties in a buffered aqueous solution at pH 8 were tested.
Buffered solutions (50 mM sodium phosphate) have been prepared at four different pH: 8.0, 7.0, 6.0 and 5.5, respectively. The amount of Hydrodabcyl required to reach a concentration of 5 mM was immersed in each buffer solution and kept for 1 h at 30° C. in an ultrasonic bath. […] To confirm its solubility, the absorbance of Hydrodabcyl was monitored as function of its concentration. Since the stock solution was too concentrated to be measured directly, three diluted solutions with different concentrations (10 μM, 20 μM and 30 μM) were prepared from each stock solution at pH 8.0, pH 7.0 and pH 6.0. The aliquots have been taken from different part of the volume of the stock solution to test the homogeneity.
To reach complete solubility at pH<6.0, the pH of the stock solution (5 mM range) at pH 7.0 was decreased at the desired value with few drops of 5M HCl. Following gradual acidification of the medium the mM solution of Hydrodabcyl remained clear till pH 4.3. […] At pH<4.3 Hydrodabcyl precipitates.

[3] = system: circular and linear double-stranded DNA pBR322; assay: Electrophoretic Mobility Shift Assay (EMSA); format: binding; details: 24 h incubation, 0, 5, 10, 25, 50 μM, agarose gel
Experimental: The DNA was incubated for 24 hours with various concentrations (0, 5, 10, 25, 50 μM) of (a) doxorubicin and (b) Hydrodabcyl. FIGS. 6a and 6b show the ethidium bromide staining of DNA separated by agarose gel electrophoresis. […] The DNA was incubated for 24 hours with various concentrations (0, 5, 10, 25, 50 μM) of (a) doxorubicin and (b) Hydrodabcyl. FIGS. 7a and 7b show the ethidium bromide staining of DNA separated by agarose gel electrophoresis. […] Circular and linear double-stranded DNA was incubated with various concentrations of Hydrodabcyl and doxorubicin (a known intercalating substance). After 24 h of incubation time, agarose gel electrophoresis was carried out.

Absorption spectra = format: physicochemical; details: for ε (molar absorbance): 20° C.
Experimental: Double beam Perkin Elmer Lambda 750 UV/Vis spectrophotometer equipped with a thermostated cuvette holder was used to record the absorption spectra over a wavelength range 200-800 nm at 20° C.
The quartz cuvettes with 1 cm light path used were from Hellma.

[4] = system: oocytes of Xenopus laevis; assay: Influence on embryogenesis of injected oocytes; format: in vivo; details: conclusion from Table 2
Experimental: Two sorts of labelled molecules were injected into oocytes of Xenopus laevis: • A molecule labelled with monobromobimane (mBBr; a fluorescent dye, which emits light in the absorption spectrum of Hydrodabcyl); the molecule is called Substrate-Bim • A molecule labelled with mBBr and Hydrodabcyl (a fluorescence quencher); the molecule is called Bim-Substrate-Hydrodabcyl The effect on embryogenesis of the molecules injected into the oocytes as described in Example 5 was observed.

[5] = Solubility tests in water and buffered aqueous solutions; format: physicochemical; details: for appearance in water: about 7 μM
EaHy.926 = assay: Cytotoxicity assay, EaHy.926; format: cell-based; details: Homo sapiens, EA.hy 926, incubation for 72 hours, 5 to 100 μM
Experimental: (§1) Three different cell culture types were incubated with various concentrations (from 5 to 100 μM) of Hydrodabcyl.

CHF = assay: Cytotoxicity assay, CHF; format: cell-based; details: incubation for 72 hours, 5 to 100 μM
Experimental: as §1

HT-29 = assay: Cytotoxicity assay, HT-29; format: cell-based; details: Homo sapiens, incubation for 72 hours, 5 to 100 μM
Experimental: as §1

[6] = water, reported [8]; cited from earlier work
[7] = sodium phosphate buffer, aqueous buffer, thermodynamic from solid, read-out: Solubility

effect of light exposure on absorption spectrum [1]: no effect on the absorption spectrum
absorbance under 2-hour continuous irradiation at absorption maximum ([1]; DMSO, 20° C.): constant signal
dissolution at 5 mM, direct preparation ([2]; 50 mM sodium phosphate pH 5.5, 1 h at 30° C. ultrasonic bath): not completely soluble
dissolution at 5 mM, direct preparation ([2]; 50 mM sodium phosphate pH 6.0, 1 h at 30° C. ultrasonic bath): Clear solutions
dissolution at 5 mM, direct preparation ([2]; 50 mM sodium phosphate pH 7.0, 1 h at 30° C. ultrasonic bath): Clear solutions
dissolution at 5 mM, direct preparation ([2]; 50 mM sodium phosphate pH 8.0, 1 h at 30° C. ultrasonic bath): Clear solutions
solubility thermodynamic ([2]; aqueous buffer, thermodynamic from solid, buffered aqueous solution at pH 8, read-out: concentration of saturated solution): 25000 µM (≈ 7930 µg/mL)
solubility [2, 7]: 25400 µM (≈ 8060 µg/mL)
ε (molar absorbance) (Absorption spectra; 50 mM sodium phosphate buffer pH=8.0, 2×10^−5 M, at 445 nm): 43000 ± 1000 L/mol/cm
λmax (Absorption spectra; 2×10^−5 M in DMSO at 20° C.): 470 nm
ε470 (molar absorbance) (Absorption spectra; DMSO): 37000 M⁻¹ cm⁻¹
ε (molar absorbance) (Absorption spectra; DMSO, 2×10^−5 M, at 470 nm): 37000 ± 1000 L/mol/cm
ε445 (molar absorbance) (Absorption spectra; aqueous solution): 43000 M⁻¹ cm⁻¹
λmax (Absorption spectra; aqueous solution, 50 mM sodium phosphate buffer pH=8.0, 20° C.): 445 nm
influence on embryogenesis [4]: does not influence embryogenesis
solubility ([5]; thermodynamic from solid, Water, 20° C., pH = 4.5, read-out: Solubility): 571 µM (≈ 181 µg/mL)
appearance in water ([5]; water): clear solution
Compound: CN(C)c1cc(O)c(/N=N/c2ccc(C(=O)O)c(O)c2)c(O)c1 [Hydrodabcyl, 4-((4′-(dimethylamino)2′,6′-dihydroxyphenyl)azo)2-hydroxybenzoic acid]
shift of DNA bands / intercalation into DNA [3]: does not intercalate or bind to the DNA
IC50 (EaHy.926): > 50 µM
IC50 (CHF): > 100 µM
IC50 (HT-29): > 50 µM

solubility ([5]; water, converted from 5.8 g per 1 kg): about 40 mM
Compound: NCCCC[C@H](N)C(=O)O [L-Lys, reference compound]
solubility [6]: 5.8 g per 1 kg of water

solubility [2]: 7.6 µM and 7.62 µM
Compound: CN(C)c1ccc(N=Nc2ccc(C(=O)NCCCCC(N)C(=O)O)cc2)cc1 (stereo not shown) [Lys-dabcyl, reference compound]

effect of light exposure on absorption spectrum [1]: strongly modify the absorption spectrum
absorbance under 2-hour continuous irradiation at absorption maximum ([1]; DMSO, 20° C.): constant signal
time in the dark to recover original spectrum ([1]; after 5 min 60 W tungsten lamp, DMSO, 20° C.): 10 min
solubility [2, 7]: 541 µM (≈ 146 µg/mL)
λmax (Absorption spectra; 2×10^−5 M in DMSO at 20° C.): 451 nm
appearance in water ([5]; water): precipitation
Compound: CN(C)c1ccc(/N=N/c2ccc(C(=O)O)cc2)cc1 [dabcyl, 4-(4′-dimethylamino-phenylazo)benzoic acid]

Compound: COc1cccc2c1C(=O)c1c(O)c3c(c(O)c1C2=O)C[C@@](O)(C(=O)CO)C[C@@H]3O[C@H]1C[C@H](N)[C@H](O)[C@H](C)O1 [doxorubicin, reference compound]
shift of DNA bands / intercalation into DNA [3]: shift of the DNA bands with increasing doxorubicin concentration

— patent US9815774B1, “Hydrodabcyl” (Universität Bayreuth, priority 2014, dated 2017)
